Results published in USRE49735E1 (BRISTOL-MYERS SQUIBB COMPANY, priority 2010, dated 2023).
“And” between values parts separate entries of the source, which are not always exact repeats. Equal entries are not always repeated.

biological target: human mGluR5A (Homo sapiens, UniProt P41594); test: mGluR5 FLIPR Assay; assay type: cell-based; conditions: positive modulator activity; HEK293 (ZF) cells with human mGluR5A and rat GLAST; Ca++ response to ~EC10 glutamate
Sequence (P41594 21-1180 isoform P41594-2): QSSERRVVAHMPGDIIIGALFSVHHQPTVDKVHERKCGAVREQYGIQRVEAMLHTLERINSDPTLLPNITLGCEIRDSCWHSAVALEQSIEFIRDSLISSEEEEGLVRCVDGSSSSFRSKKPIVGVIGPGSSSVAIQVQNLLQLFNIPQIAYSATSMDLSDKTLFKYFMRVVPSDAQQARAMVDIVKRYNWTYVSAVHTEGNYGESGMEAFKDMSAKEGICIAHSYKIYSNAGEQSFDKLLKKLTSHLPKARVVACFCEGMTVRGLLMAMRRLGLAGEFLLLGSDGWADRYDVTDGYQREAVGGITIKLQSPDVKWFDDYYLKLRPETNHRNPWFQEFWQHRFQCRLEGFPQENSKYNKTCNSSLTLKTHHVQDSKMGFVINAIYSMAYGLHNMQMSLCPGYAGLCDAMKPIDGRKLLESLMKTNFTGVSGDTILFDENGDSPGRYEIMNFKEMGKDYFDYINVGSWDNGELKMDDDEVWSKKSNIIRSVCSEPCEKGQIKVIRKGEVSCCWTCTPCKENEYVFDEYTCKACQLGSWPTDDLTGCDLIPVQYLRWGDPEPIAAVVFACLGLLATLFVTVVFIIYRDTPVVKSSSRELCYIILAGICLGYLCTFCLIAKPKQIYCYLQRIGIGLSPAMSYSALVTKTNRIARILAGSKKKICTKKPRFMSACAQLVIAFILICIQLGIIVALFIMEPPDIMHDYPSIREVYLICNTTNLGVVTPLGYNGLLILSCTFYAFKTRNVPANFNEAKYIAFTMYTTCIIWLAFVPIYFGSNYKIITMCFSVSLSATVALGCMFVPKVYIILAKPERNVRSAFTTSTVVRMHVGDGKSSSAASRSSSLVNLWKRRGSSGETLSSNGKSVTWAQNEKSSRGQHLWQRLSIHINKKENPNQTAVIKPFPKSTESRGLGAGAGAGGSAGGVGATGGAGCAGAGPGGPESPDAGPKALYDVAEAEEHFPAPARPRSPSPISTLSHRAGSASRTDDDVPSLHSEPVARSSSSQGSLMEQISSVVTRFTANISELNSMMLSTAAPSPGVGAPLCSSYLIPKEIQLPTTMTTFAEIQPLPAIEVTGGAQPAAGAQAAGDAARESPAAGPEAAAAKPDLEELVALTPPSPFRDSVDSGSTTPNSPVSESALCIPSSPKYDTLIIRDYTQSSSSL

SMILES	EC50
COc1cccc([C@H]2OC(=O)N[C@@H]2c2cccc(C#Cc3ccc(F)cc3F)c2)c1 [Example 127, (4R,5R)-4-(3-((2,4-difluorophenyl)ethynyl)phenyl)-5-(3-methoxyphenyl)oxazolidin-2-one]	100 to 1000 nM
COc1cccc([C@@H]2OC(=O)N[C@H]2c2cccc(C#Cc3ccc(F)cc3F)c2)c1 [Example 128, (4S,5S)-4-(3-((2,4-difluorophenyl)ethynyl)phenyl)-5-(3-methoxyphenyl)oxazolidin-2-one]	> 1000 nM
COc1cccc([C@H]2OC(=O)N[C@@H]2c2cccc(C#Cc3cccc(C(F)(F)F)c3)c2)c1 [Example 129, (4R,5R)-5-(3-methoxyphenyl)-4-(3-((3-(trifluoromethyl)phenyl)ethynyl)phenyl)oxazolidin-2-one]	> 1000 nM
COc1cccc([C@@H]2OC(=O)N[C@H]2c2cccc(C#Cc3cccc(C(F)(F)F)c3)c2)c1 [Example 130, (4S,5S)-5-(3-methoxyphenyl)-4-(3-((3-(trifluoromethyl)phenyl)ethynyl)phenyl)oxazolidin-2-one]	> 1000 nM
COc1cccc([C@H]2OC(=O)N[C@@H]2c2cccc(C#Cc3ccc(F)cc3)c2)c1 [Example 131, (4R,5R)-4-(3-((4-fluorophenyl)ethynyl)phenyl)-5-(3-methoxyphenyl)oxazolidin-2-one]	< 100 nM
COc1cccc([C@@H]2OC(=O)N[C@H]2c2cccc(C#Cc3ccc(F)cc3)c2)c1 [Example 132, (4S,5S)-4-(3-((4-fluorophenyl)ethynyl)phenyl)-5-(3-methoxyphenyl)oxazolidin-2-one]	> 1000 nM
COc1cccc([C@H]2OC(=O)N[C@@H]2c2cccc(C#Cc3cccc(F)c3)c2)c1 [Example 133, (4R,5R)-4-(3-((3-fluorophenyl)ethynyl)phenyl)-5-(3-methoxyphenyl)oxazolidin-2-one]	< 100 nM
O=C1N[C@H](c2cccc(C#Cc3ccccc3)c2)[C@@H](c2nc(-c3ccccc3)no2)O1 [Example 158]	> 30000 nM
O=C1N[C@@H](c2cccc(C#Cc3ccccc3)c2)[C@H](c2nc(-c3ccccc3)no2)O1 [Example 159]	> 1000 nM
O=C1N[C@H](c2cccc(C#Cc3ccccc3)c2)[C@@H](c2nc(-c3ccncc3)no2)O1 [Example 160]	> 1000 nM
O=C1N[C@@H](c2cccc(C#Cc3ccccc3)c2)[C@H](c2nc(-c3ccncc3)no2)O1 [Example 161]	> 1000 nM
O=C1N[C@H](c2cccc(C#Cc3ccccc3)c2)[C@@H](c2nc(-c3ccccn3)no2)O1 [Example 162]	> 1000 nM
O=C1N[C@@H](c2cccc(C#Cc3ccccc3)c2)[C@H](c2nc(-c3ccccn3)no2)O1 [Example 163]	> 1000 nM
O=C1N[C@H](c2cccc(C#Cc3ccccc3)c2)[C@@H](c2nc(-c3cccnc3)no2)O1 [Example 164]	> 1000 nM
O=C1N[C@@H](c2cccc(C#Cc3ccccc3)c2)[C@H](c2nc(-c3cccnc3)no2)O1 [Example 165]	> 1000 nM
Cc1noc([C@H]2OC(=O)N[C@@H]2c2cccc(C#Cc3ccccc3)c2)n1 [Example 166]	> 1000 nM
Cc1noc([C@@H]2OC(=O)N[C@H]2c2cccc(C#Cc3ccccc3)c2)n1 [Example 167]	> 1000 nM
O=C1N[C@H](c2cccc(C#Cc3ccccc3)c2)[C@@H](c2nnn[nH]2)O1 [Example 168, (4R,5S)-4-(3-(Phenylethynyl)phenyl)-5-(1H-tetrazol-5-yl)oxazolidin-2-one]	> 1000 nM
Cn1nnc([C@H]2OC(=O)N[C@@H]2c2cccc(C#Cc3ccccc3)c2)n1 [Example 169, (4R,5S)-5-(2-Methyl-2H-tetrazol-5-yl)-4-(3-(phenylethynyl)phenyl)oxazolidin-2-one]	> 1000 nM

Further lines, results first:

EC50	SMILES
> 1000 nM	COc1cccc([C@@H]2OC(=O)N[C@H]2c2cccc(C#Cc3cccc(F)c3)c2)c1 [Example 134, (4S,5S)-4-(3-((3-fluorophenyl)ethynyl)phenyl)-5-(3-methoxyphenyl)oxazolidin-2-one]
< 100 nM	O=C1N[C@H](c2cc(C#Cc3cccnc3)cnc2F)[C@@H](c2cccc(F)c2)O1 [Example 139, (4R,5R)-4-(2-Fluoro-5-(pyridin-3-ylethynyl)pyridin-3-yl)-5-(3-fluorophenyl)oxazolidin-2-one]
< 100 nM	O=C1N[C@H](c2cc(C#Cc3cncc(F)c3)cnc2F)[C@@H](c2cccc(F)c2)O1 [Example 140, (4R,5R)-4-(2-Fluoro-5-((5-fluoropyridin-3-yl)ethynyl)pyridin-3-yl)-5-(3-fluorophenyl)oxazolidin-2-one]
< 100 nM	O=C1N[C@H](c2cc(C#Cc3ccnc(F)c3)cnc2F)[C@@H](c2cccc(F)c2)O1 [Example 141, (4R,5R)-4-(2-Fluoro-5-((2-fluoropyridin-4-yl)ethynyl)pyridin-3-yl)-5-(3-fluorophenyl)oxazolidin-2-one]
< 100 nM and 3.7 nM	O=C1N[C@H](c2cc(C#Cc3cccnc3)cnc2F)[C@@H](c2ccc(F)cc2)O1 [Example 142, (4R,5R)-4-(2-Fluoro-5-(pyridin-3-ylethynyl)pyridin-3-yl)-5-(4-fluorophenyl)oxazolidin-2-one]
< 100 nM	O=C1N[C@H](c2cc(C#Cc3cncc(F)c3)cnc2F)[C@@H](c2ccc(F)cc2)O1 [Example 143, (4R,5R)-4-(2-Fluoro-5-((5-fluoropyridin-3-yl)ethynyl)pyridin-3-yl)-5-(4-fluorophenyl)oxazolidin-2-one]
< 100 nM	O=C1N[C@H](c2cc(C#Cc3cncc(F)c3)ncc2F)[C@@H](c2ccc(F)cc2)O1 [Example 144, (4R,5R)-4-(5-Fluoro-2-((5-fluoropyridin-3-yl)ethynyl)pyridin-4-yl)-5-(4-fluorophenyl)oxazolidin-2-one]
< 100 nM	O=C1N[C@H](c2cc(C#Cc3cccnc3)cnc2F)[C@@H](c2ccc(C(F)(F)F)cc2)O1 [Example 145, (4R,5R)-4-(2-Fluoro-5-(pyridin-3-ylethynyl)pyridin-3-yl)-5-(4-(trifluoromethyl)phenyl)oxazolidin-2-one]
< 100 nM	O=C1N[C@H](c2cc(C#Cc3cccnc3)cnc2F)[C@@H](c2ccc(Cl)cc2)O1 [Example 146, (4R,5R)-5-(4-Chlorophenyl)-4-(2-fluoro-5-(pyridin-3-ylethynyl)pyridin-3-yl)oxazolidin-2-on]
> 1000 nM	O=C1N[C@H](c2cc(C#Cc3ncccc3F)cnc2F)[C@@H](c2cccc(F)c2)O1 [Example 147, (4R,5R)-4-(2-Fluoro-5-((3-fluoropyridin-2-yl)ethynyl)pyridin-3-yl)-5-(3-fluorophenyl)oxazolidin-2-one]
> 1000 nM	O=C1N[C@H](c2cc(C#Cc3ccccn3)cnc2F)[C@@H](c2cccc(F)c2)O1 [Example 148, (4R,5R)-4-(2-Fluoro-5-(pyridin-2-ylethynyl)pyridin-3-yl)-5-(3-fluorophenyl)oxazolidin-2-one]
> 1000 nM	O=C1N[C@H](c2cc(C#Cc3ccnc(C4CC4)c3)cnc2F)[C@@H](c2ccc(Cl)cc2)O1 [Example 150, (4R,5R)-5-(4-Chlorophenyl)-4-(5-((2-cyclopropylpyridin-4-yl)ethynyl)-2-fluoropyridin-3-yl)oxazolidin-2-one]
> 1000 nM	O=C1N[C@H](c2cc(C#Cc3ccc(C4CC4)nc3)cnc2F)[C@@H](c2ccc(F)cc2)O1 [Example 151, (4R,5R)-4-(5-((6-Cyclopropylpyridin-3-yl)ethynyl)-2-fluoropyridin-3-yl)-5-(4-fluorophenyl)oxazolidin-2-one]
> 1000 nM	O=C1N[C@H](c2cc(C#Cc3ccnc(C4CC4)c3)cnc2F)[C@@H](c2ccc(F)cc2)O1 [Example 152, (4R,5R)-4-(5-((2-Cyclopropylpyridin-4-yl)ethynyl)-2-fluoropyridin-3-yl)-5-(4-fluorophenyl)oxazolidin-2-one]
100 to 1000 nM and 188 nM	O=C1N[C@H](c2cc(C#Cc3cccc(C4CC4)n3)cnc2F)[C@@H](c2ccc(F)cc2)O1 [Example 153, (4R,5R)-4-(5-((6-Cyclopropylpyridin-2-yl)ethynyl)-2-fluoropyridin-3-yl)-5-(4-fluorophenyl)oxazolidin-2-one]
> 1000 nM	O=C1N[C@H](c2cc(C#Cc3ccc4nccnc4c3)cnc2F)[C@@H](c2ccc(F)cc2)O1 [Example 154, (4R,5R)-4-(2-fluoro-5-(quinoxalin-6-ylethynyl)pyridin-3-yl)-5-(4-fluorophenyl)oxazolidin-2-one]
> 1000 nM	O=C1N[C@H](c2cc(C#Cc3cncc(C4CC4)c3)cnc2F)[C@@H](c2ccc(F)cc2)O1 [Example 155, (4R,5R)-4-(5-((5-Cyclopropylpyridin-3-yl)ethynyl)-2-fluoropyridin-3-yl)-5-(4-fluorophenyl)oxazolidin-2-one]
< 100 nM	O=C1N[C@H](c2cc(C#Cc3ccccn3)cnc2F)[C@@H](c2ccc(F)cc2)O1 [Example 156, (4R,5R)-4-(2-Fluoro-5-(pyridin-2-ylethynyl)pyridin-3-yl)-5-(4-fluorophenyl)oxazolidin-2-one]
< 100 nM	O=C1N[C@H](c2cc(C#Cc3cccc(F)n3)cnc2F)[C@@H](c2ccc(F)cc2)O1 [Example 157, (4R,5R)-4-(2-Fluoro-5-((6-fluoropyridin-2-yl)ethynyl)pyridin-3-yl)-5-(4-fluorophenyl)oxazolidin-2-one]
< 100 nM	O=C1N[C@H](c2cncc(C#Cc3ccccc3)c2)[C@@H](c2cc(F)cc(F)c2)O1 [Example 170]
< 100 nM	O=C1N[C@H](c2cncc(C#Cc3cncc(F)c3)c2)[C@@H](c2cc(F)cc(F)c2)O1 [Example 171]
< 100 nM	O=C1N[C@H](c2cncc(C#Cc3ccccc3)c2)[C@@H](c2ccc(F)c(F)c2)O1 [Example 172]
< 100 nM	O=C1N[C@H](c2cncc(C#Cc3cccnc3)c2)[C@@H](c2ccc(F)c(F)c2)O1 [Example 173]
> 1000 nM	N#Cc1cccc(C#Cc2cncc([C@H]3NC(=O)O[C@@H]3c3cc(F)cc(F)c3)c2)c1 [Example 174]
< 100 nM	O=C1N[C@H](c2cncc(C#Cc3cncc(F)c3)c2)[C@@H](c2ccc(F)c(F)c2)O1 [Example 175]
< 100 nM and 5.2 nM	N#Cc1cccc(C#Cc2cncc([C@H]3NC(=O)O[C@@H]3c3ccc(F)c(F)c3)c2)c1 [Example 176]
> 1000 nM	O=C1N[C@H](c2cncc(C#Cc3ccccn3)c2)[C@@H](c2cc(F)cc(F)c2)O1 [Example 177]
